Measurements taken from patent US10016486B1, “Methods and compositions using AMPK activators for pharmacological prevention of chronic pain” (ARIZONA BOARD OF REGENTS ON BEHALF OF THE UNIVERSITY OF …, priority 2013, dated 2018).
pEC50: −log10 of the molar value. Entries after “also recorded” stand apart in the source; their conditions may differ.

Experiments:
Male ICR mice [1] = assay: Plantar incision model: hyperalgesic priming precipitated by intraplantar PGE2 on day 14; assay type: in vivo
Procedure: (§1) Behavior testing: For the testing, animals were placed in acrylic boxes with wire mesh floors and allowed to habituate for approximately 1 h on all testing days. Paw withdrawal thresholds were measured using calibrated von Frey filaments (Stoelting, Wood Dale, Ill.) by stimulating the plantar aspect of left hind paw using the up-down method (Chaplan et al., 1994). Plantar incision and behavioral testing: Prior to surgery all animals were assessed for paw withdrawal thresholds. A mouse model of incisional pain was used for this study (Banik et al., 2006). […] Sham controls underwent the same procedure but without the incision. The skin was apposed with 2 sutures of […]. […] The paw withdrawal thresholds were again measured at 1 h, 3 h and 24 h following the PGE2 injection. Statistical Analysis and Data Presentation: Data are shown as means and the standard error of the mean (±SEM) of 6 animals (for behavioral studies). Graph plotting and statistical analysis used Graphpad Prism Version 5.03 (Graph Pad Software, Inc. San Diego, Calif., USA). Statistical evaluation was performed by one- or two-way analysis of variance (ANOVA), followed by appropriate post-hoc tests. The a priori level of significance at 95% confidence level was considered at p<0.05.

[2] = system: neuropathic allodynia induced by peripheral nerve injury; details: previously demonstrated; cited from earlier work
Male ICR mice [3] = assay: Plantar incision model: acute mechanical hypersensitivity (paw withdrawal thresholds, von Frey filaments); assay type: in vivo
Procedure: as §1

[4] = system: translation regulation signaling pathways and nascent protein synthesis in injured nerves neurons; details: previously demonstrated; cited from earlier work
AMPK = details: independent of upstream kinase LKB1; Lee et al., 2011; read-out: EC50, stimulation of AMPK kinase activity through direct activation; cited from earlier work
Male ICR mice [5] = assay: Wound healing and wound closure after plantar incision (H & E staining); details: maximal doses (resveratrol 10 μg intraplantar, metformin 200 mg/kg i.p., OSU53 10 or 30 μg intraplantar); for wound size vs vehicle treated group: Day 3 after plantar incision; for wound closure: Day 7 after plantar incision
Procedure: Experimental animals: Male ICR mice (Harlan, 20-25 g) were used for the study.
Immunohistochemistry: To determine re-epithelialization, plantar skin was excised from the left hind paw of mice either 3 days or 7 days following plantar incision surgery. The skin was immediately cryoprotected and frozen in O.C.T compound and sectioned (20 μm) on cryostat. The sections were then fixed in formalin and immersed in 0.1% hematoxylin for 3 minutes, washed in tap water, then immersed in 0.1% eosin for 3 minutes, and dehydrated through graded ethanol (Protocol from University of Michigan Center for Organogenesis). Finally sections were coverslipped with Permount (Fisher, Pittsburgh, Pa.). The sections were imaged and the width between 2 epithelial edges was measured using Olympus BX51 microscope.

Male ICR mice [6] = details: local injection of resveratrol into the hind paw following plantar incision; previously demonstrated; cited from earlier work
[7] = general statement; cited from earlier work
Male ICR mice [8] = details: local injection of resveratrol into the hind paw following plantar incision; previously demonstrated; cited from earlier work; remark: listed apart in the source
[9] = system: ERK and mTOR signaling in sensory neurons; details: time- and concentration-dependent; previously demonstrated; cited from earlier work
[10] = OSU53 10 or 30 μg injected locally into the hind paw around the incision
[11] = metformin lower doses (30, 100, 150) intra-peritoneal for 4 days starting 2 days prior to surgery
[12] = metformin maximal dose 200 mg/kg intra-peritoneal for 4 days starting 2 days prior to surgery

N#Cc1c(O)c2c(-c3ccc(-c4ccccc4O)cc3)csc2[nH]c1=O [A-769662]
hyperalgesic priming following PGE2 injection on day 14 (Male ICR mice [1]; A-769662 30 mg/kg intra-peritoneal for 4 days starting 2 days prior to surgery): significantly blocked | neuropathic allodynia induced by peripheral nerve injury [2]: resolution of neuropathic allodynia | plantar incision-induced acute mechanical hypersensitivity (Male ICR mice [3]; A-769662 30 mg/kg intra-peritoneal for 4 days starting 2 days prior to surgery, 30 mg/kg): did not block; also recorded: not effective | translation regulation signaling pathways and nascent protein synthesis in injured nerves neurons [4]: inhibited

CC1(CN2C(=O)S/C(=C\c3ccc(NS(=O)(=O)c4ccc([N+](=O)[O-])c(C(F)(F)F)c4)cc3)C2=O)CCCCC1 [OSU53]
pEC50 (AMPK): 6.52 | hyperalgesic priming after PGE2 injection on day 14 (Male ICR mice [1]; [10]): significantly blocked; also recorded: dose-relatedly blocked | plantar incision-induced acute mechanical hypersensitivity (Male ICR mice [3]; [10]): significantly blocked; also recorded: dose-relatedly blocked

CN(C)C(=N)N=C(N)N [metformin]
plantar incision-induced hyperalgesic priming precipitated by PGE2 (Male ICR mice [1]; metformin 30, 100, 150 or 200 mg/kg intra-peritoneal for 4 days (FIG. 3 legend, all doses together)): significantly blocked | hyperalgesic priming following PGE2 injection on day 14 (Male ICR mice [1]; [11]): significantly blocked | hyperalgesic priming following PGE2 injection on day 14 (Male ICR mice [1]; [12]): prevented | neuropathic allodynia induced by peripheral nerve injury [2]: resolution of neuropathic allodynia | plantar incision-induced acute hypersensitivity (Male ICR mice [3]; metformin 30, 100, 150 or 200 mg/kg intra-peritoneal for 4 days (FIG. 2 legend, all doses together)): significantly blocked | plantar incision-induced acute hypersensitivity (Male ICR mice [3]; metformin alone, 150 μg intra-peritoneal for 4 days starting 2 days prior to surgery (sub-efficacious dose)): blunted acute hypersensitivity compared to vehicle treated mice but the effect was not significant | plantar incision-induced acute mechanical hypersensitivity (Male ICR mice [3]; [11]): not effective | plantar incision-induced acute mechanical hypersensitivity (Male ICR mice [3]; [12]): prevented | translation regulation signaling pathways and nascent protein synthesis in injured nerves neurons [4]: inhibited | wound size vs vehicle treated group (Male ICR mice [5]): No differences | wound closure (Male ICR mice [5]): completely closed

Oc1ccc(C=Cc2cc(O)cc(O)c2)cc1 [resveratrol]
hyperalgesic priming induced by incision (Male ICR mice [6]): attenuates; also recorded: dose-relatedly reverses | bioavailability [7]: lacks bioavailability | plantar incision-induced hyperalgesic priming precipitated by PGE2 (Male ICR mice [1]; topical resveratrol 100 μg at the time of incision and 1 day post incision, PGE2 100 ng on day 14): significantly blocked; also recorded: prevented the development of hyperalgesic priming | plantar incision-induced hyperalgesic priming precipitated by PGE2 (Male ICR mice [1]; topical resveratrol 100 μg once immediately following incision, PGE2 100 ng on day 14): abolished; also recorded: prevented the development of hyperalgesic priming | incision-mediated mechanical hypersensitivity (Male ICR mice [8]): attenuates; also recorded: dose-relatedly reverses | plantar incision-induced acute hypersensitivity (Male ICR mice [3]; resveratrol alone, 3 μg injected in hind paw around incision on day of surgery and 24 hrs post-surgery (sub-efficacious dose)): blunted acute hypersensitivity compared to vehicle treated mice but the effect was not significant | plantar incision-induced acute mechanical hypersensitivity (Male ICR mice [3]; topical resveratrol cream (2 mg/ml in PEG), 100 μg, applied once immediately following incision, vs vehicle): blunted; also recorded: blunted hypersensitivity though not significant | plantar incision-induced acute mechanical hypersensitivity (Male ICR mice [3]; topical resveratrol cream, 100 μg, applied twice: immediately following incision and 24 hrs following incision, vs vehicle): significantly blocked; also recorded: significantly attenuated | ERK and mTOR signaling in sensory neurons [9]: profoundly inhibits | wound size vs vehicle treated group (Male ICR mice [5]): no differences | wound closure (Male ICR mice [5]): completely closed
